Values belong to the compound of their own block, whether it stands above or below them. The source made the active and inactive calls. The calls are words filed in the database; no cut-off is given here.
Legend:
[1] = target: Diacylglycerol kinase alpha (Homo sapiens) (UniProt P23743); assay: Inhibition of FLAG-tagged DGKa (unknown origin) using lipids and [gamma-32P]-ATP incubated for 15 mins by scintillation counting method
VMM39 [2] = assay: Cytotoxicity in human VMM39 cells assessed as reduction in cell viability at 25 to 150 uM by alamar blue dye based assay; type: functional
U-251 [3] = assay: Cytotoxicity in human U251 cells assessed as reduction in cell viability at 25 to 75 uM by alamar blue dye based assay; type: functional
VMM39 [4] = assay: Antitumor activity against human VMM39 cells xenografted in athymic nu/nu mouse assessed as induction of delay in tumor formation at 10 mg/kg dosed via daily oral gavage; type: functional, organism-based
[5] = target: Diacylglycerol kinase alpha (Homo sapiens) (UniProt P23743); assay: Inhibition of DGKa in human VMM39 cells assessed as reduction in p53 phosphorylation at S15 residues at 12.5 to 17.5 uM incubated for 24 hrs by immunoblot analysis; type: cell-based
Astrocyte [6] = assay: Cytotoxicity against immortalized astrocytes (unknown origin) assessed as reduction in cell viability at 10 to 15 uM in presence of 10 uM chloroquine incubated for 2 to 4 days by Trypan blue exclusion based hemocytometry
[7] = target: Diacylglycerol kinase alpha (Homo sapiens) (UniProt P23743); assay: Inhibition of DGKa in human G88 cells assessed as decrease in RhoA expression by ELISA; type: cell-based
A-375 [8] = assay: Antitumor activity against human A375 cells xenografted in athymic nu/nu mouse assessed as reduction in tumor volume at 50 mg/kg dosed via daily oral gavage starting 6 days post-tumor implantation and measured up to 50 days post tumor implantation; type: functional, organism-based
U-251 [9] = assay: Synergistic cytotoxicity in human U251 cells assessed as reduction in cell viability at 7.5 uM in presence of 50 uM TMZ by alamar blue dye based assay; type: functional
Homo sapiens [10] = species: Homo sapiens; assay: Increase in PDGFRA expression in human G2 cells at 3 uM by immunoblot analysis; type: functional, cell-based
[11] = Cytotoxicity in human JWL578 cells assessed as reduction in cell viability incubated for 2 to 4 days by Trypan blue exclusion based hemocytometry; type: functional
B16 = assay: Cytotoxicity in mouse B16 cells assessed as reduction in cell viability at 10 uM in presence of 5 uM chloroquine incubated for 2 to 4 days by Trypan blue exclusion based hemocytometry; type: functional
[12] = target: Diacylglycerol kinase alpha (Homo sapiens) (UniProt P23743); assay: Inhibition of DGKa in human JWL578 cells transfected with mTOR promoter assessed as decrease in mTOR promoter activity at 20 uM incubated for 36 to 48 hrs by luciferase reporter gene assay; type: cell-based
[13] = target: Diacylglycerol kinase alpha (Homo sapiens) (UniProt P23743); assay: Inhibition of DGKa in human G2 cells assessed as decrease in NF-kappaB expression under 4 Gy irradiation by luciferase reporter gene assay; type: cell-based
Homo sapiens [14] = species: Homo sapiens; assay: Increase in PDGFRA expression in human G88 cells at 3 uM by immunoblot analysis; type: functional, cell-based
U-251 [15] = assay: Antitumor activity against human U251 cells xenografted in athymic nu/nu mouse assessed as increase in mouse survival at 50 mg/kg dosed via daily oral gavage starting 7 days post-tumor implantation and measured up to 50 days post tumor implantation; type: functional, organism-based
Homo sapiens [16] = species: Homo sapiens; assay: Cytotoxicity in human MPanc96 cells with TNFalpha-induced epithelial-mesenchymal transition at 15 uM; type: functional, cell-based
[17] = Synergistic cytotoxicity in human G2 cells assessed as combination index at 2 uM in presence of imatinib incubated for 5 days; type: functional
Homo sapiens [18] = species: Homo sapiens; assay: Cytotoxicity in human GB464 cells with TNFalpha-induced proneural-to- mesenchymal transition at 8 uM; type: functional, cell-based
U-251 [19] = assay: Cytotoxicity in human U251 cells assessed as reduction in cell viability at 10 uM in presence of 20 uM chloroquine incubated for 2 to 4 days by Trypan blue exclusion based hemocytometry; type: functional
[20] = target: Diacylglycerol kinase alpha (Homo sapiens) (UniProt P23743); assay: Inhibition of DGKa in human U251 cells assessed as reduction in p53 phosphorylation at S15 residues at 12.5 to 17.5 uM incubated for 24 hrs by immunoblot analysis; type: cell-based
[21] = target: Diacylglycerol kinase alpha (Homo sapiens) (UniProt P23743); assay: Inhibition of DGKa in human G2 cells assessed as decrease in GGTase-1 by measuring increase in unprenylated ras-related protein RaplA expression by immunoblot analysis; type: cell-based
[22] = target: Diacylglycerol kinase alpha (Homo sapiens) (UniProt P23743); assay: Inhibition of DGKa in human G2 cells assessed as decrease in RhoA expression by ELISA; type: cell-based
Homo sapiens [23] = species: Homo sapiens; assay: Cytotoxicity in human JWL578 cells assessed as reduction in cell viability at 10 uM in presence of phosphatidic acid incubated for 2 to 4 days by Trypan blue exclusion based hemocytometry; type: functional
U-251 [24] = assay: Induction of autophagy in human U251 cells assessed as LC3-II accumulation at 10 uM in presence of 20 uM chloroquine by immunoblot analysis; type: functional, cell-based
[25] = target: Diacylglycerol kinase alpha (Homo sapiens) (UniProt P23743); assay: Inhibition of DGKa in human U251 cells assessed as reduction in P70 S6K phosphorylation at T389/T421 residues at 15 uM incubated for 24 hrs by dot-blot proteomics assay relative to baseline; type: cell-based
U-251 [26] = assay: Induction of apoptosis in human U251 cells at 10 to 20 uM in presence of apoptosis inhibitor ZVAD-FMK by Annexin V-PE and 7-AAD staining based flow cytometry; type: functional, cell-based
[27] = Synergistic cytotoxicity in human G88 cells assessed as combination index at 2 uM in presence of imatinib incubated for 5 days; type: functional
U-251 [28] = assay: Induction of apoptosis in human U251 cells at 10 to 20 uM by Annexin V-PE and 7-AAD staining based flow cytometry; type: functional, cell-based
Homo sapiens [29] = species: Homo sapiens; assay: Cytotoxicity in human GB816 cells with TNFalpha-induced proneural-to- mesenchymal transition at 8 uM; type: functional, cell-based
U-251 [30] = assay: Cytotoxicity in human U251 cells assessed as reduction in cell viability at 10 uM in presence of phosphatidic acid incubated for 2 to 4 days by Trypan blue exclusion based hemocytometry; type: functional
GL261 [31] = assay: Antitumor activity against mouse GL261 cells implanted in mouse syngeneic immunocompetent tumor model assessed as reduction in tumor volume at 100 mg/kg dosed via daily oral gavage starting 6 days post-tumor implantation and measured up to 100 days post tumor implantation; type: functional, organism-based
VMM39 [32] = assay: Cytotoxicity in human VMM39 cells assessed as reduction in cell viability at 2.5 to 22.5 uM by alamar blue dye based assay; type: functional
VMM39 [33] = assay: Induction of apoptosis in human VMM39 cells at 10 to 20 uM in presence of apoptosis inhibitor ZVAD-FMK by Annexin V-PE and 7-AAD staining based flow cytometry; type: functional, cell-based
[34] = target: Diacylglycerol kinase alpha (Homo sapiens) (UniProt P23743); assay: Inhibition of DGKa in human U251 cells assessed as reduction in p53 phosphorylation at S15 residues at 15 uM incubated for 24 hrs by dot-blot proteomics assay relative to baseline; type: cell-based
GL261 [35] = assay: Cytotoxicity in mouse GL261 cells assessed as reduction in cell viability at 10 uM in presence of 10 uM chloroquine incubated for 2 to 4 days by Trypan blue exclusion based hemocytometry; type: functional
A-375 [36] = assay: Antitumor activity against human A375 cells xenografted in athymic nu/nu mouse assessed as increase in mouse survival at 50 mg/kg dosed via daily oral gavage starting 6 days post-tumor implantation and measured up to 50 days post tumor implantation; type: functional, organism-based
U-251 [37] = assay: Induction of autophagy in human U251 cells assessed as LC3-II accumulation at 10 to 20 uM by immunoblot analysis; type: functional, cell-based
Homo sapiens [38] = species: Homo sapiens; assay: Cytotoxicity in G528 cells (unknown origin) assessed as reduction in cell viability at 10 to 15 uM in presence of 10 uM chloroquine incubated for 2 to 4 days by Trypan blue exclusion based hemocytometry; type: functional
Homo sapiens [39] = assay: Antitumor activity against human G2 cells xenografted in orally dosed mouse assessed as increase in median mouse survival; type: functional, organism-based
[40] = target: Diacylglycerol kinase alpha (Homo sapiens) (UniProt P23743); assay: Inhibition of DGKa in human G88 cells assessed as decrease in GGTase-1 by measuring increase in unprenylated ras-related protein RaplA expression by immunoblot analysis; type: cell-based
VMM39 [41] = assay: Cytotoxicity in human VMM39 cells assessed as reduction in cell viability at 15 uM in presence of 10 uM chloroquine incubated for 2 to 4 days by Trypan blue exclusion based hemocytometry; type: functional
Astrocyte [42] = assay: Cytotoxicity against immortalized astrocytes (unknown origin) assessed as reduction in cell viability at >20 uM incubated for 2 to 4 days by Trypan blue exclusion based hemocytometry
VMM39 [43] = assay: Synergistic cytotoxicity in human VMM39 cells assessed as reduction in cell viability at 7.5 uM in presence of 50 uM TMZ by alamar blue dye based assay; type: functional
[44] = Selectivity ratio of cytotoxicity against human mesenchymal GBM cells to cytotoxicity against human non-mesenchymal cells at 1 to 30 uM; type: functional
A549 = assay: Cytotoxicity in human A549 cells with TNFalpha-induced epithelial-mesenchymal transition at 15 uM; type: functional, cell-based
[45] = target: Diacylglycerol kinase alpha (Homo sapiens) (UniProt P23743); assay: Inhibition of DGKa in human U251 cells assessed as HSP60 protein level at 15 uM incubated for 24 hrs by dot-blot proteomics assay relative to baseline; type: cell-based; design: scale not given: the % may be the effect or the level left
[46] = target: Diacylglycerol kinase alpha (Homo sapiens) (UniProt P23743); assay: Inhibition of DGKa in human G88 cells assessed as decrease in NF-kappaB expression under 4 Gy irradiation by luciferase reporter gene assay; type: cell-based
[47] = target: Diacylglycerol kinase alpha (Homo sapiens) (UniProt P23743); assay: Inhibition of DGKa in human U251 cells transfected with mTOR promoter assessed as decrease in mTOR promoter activity at 20 uM incubated for 36 to 48 hrs by luciferase reporter gene assay; type: cell-based
U-251 [48] = assay: Cytotoxicity in human U251 cells assessed as reduction in cell viability at 2.5 to 17.5 uM by alamar blue dye based assay; type: functional
[49] = target: Diacylglycerol kinase alpha (Homo sapiens) (UniProt P23743); assay: Inhibition of DGKa in human U251 cells transfected with HIF1a promoter assessed as decrease in HIF1a promoter activity at 20 uM incubated for 36 to 48 hrs by luciferase reporter gene assay; type: cell-based
GL261 [50] = assay: Antitumor activity against mouse GL261 cells implanted in mouse syngeneic immunocompetent tumor model assessed as reduction in tumor size at 50 mg/kg dosed via daily oral gavage starting 6 days post-tumor implantation and measured up to 100 days post tumor implantation by magnetic resonance imaging analysis; type: functional, organism-based
VMM39 [51] = assay: Antitumor activity against human VMM39 cells xenografted in athymic nu/nu mouse assessed as induction of delay in tumor formation at 50 mg/kg dosed via daily oral gavage; type: functional, organism-based
Homo sapiens [52] = species: Homo sapiens; assay: Cytotoxicity in G34 cells (unknown origin) assessed as reduction in cell viability at 10 uM in presence of 5 uM chloroquine incubated for 2 to 4 days by Trypan blue exclusion based hemocytometry; type: functional
VMM39 [53] = assay: Induction of apoptosis in human VMM39 cells at 10 to 20 uM by Annexin V-PE and 7-AAD staining based flow cytometry; type: functional, cell-based

Diacylglycerol kinase alpha (Homo sapiens), sequence (P23743 whole entry): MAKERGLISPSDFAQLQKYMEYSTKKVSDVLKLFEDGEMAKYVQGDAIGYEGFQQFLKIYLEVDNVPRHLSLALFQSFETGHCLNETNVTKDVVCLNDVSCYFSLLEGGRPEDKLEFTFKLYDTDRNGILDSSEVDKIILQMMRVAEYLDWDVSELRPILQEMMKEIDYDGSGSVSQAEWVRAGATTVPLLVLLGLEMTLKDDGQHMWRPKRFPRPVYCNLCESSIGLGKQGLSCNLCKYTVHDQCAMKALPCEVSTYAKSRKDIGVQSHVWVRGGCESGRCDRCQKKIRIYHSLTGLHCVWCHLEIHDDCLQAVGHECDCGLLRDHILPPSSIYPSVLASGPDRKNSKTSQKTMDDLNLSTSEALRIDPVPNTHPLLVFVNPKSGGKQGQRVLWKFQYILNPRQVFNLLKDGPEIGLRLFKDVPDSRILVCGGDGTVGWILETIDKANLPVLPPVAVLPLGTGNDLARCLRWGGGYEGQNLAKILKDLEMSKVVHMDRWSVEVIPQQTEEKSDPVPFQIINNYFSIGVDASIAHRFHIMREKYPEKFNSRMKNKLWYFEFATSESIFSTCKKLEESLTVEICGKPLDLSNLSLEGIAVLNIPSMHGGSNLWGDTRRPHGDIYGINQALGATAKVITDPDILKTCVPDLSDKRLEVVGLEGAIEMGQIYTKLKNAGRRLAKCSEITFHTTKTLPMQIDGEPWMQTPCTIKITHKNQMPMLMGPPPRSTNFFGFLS

inhibition [1]: Dose-dependent effect
SMILES: Cc1nc2sccn2c(=O)c1CCN1CCC(=C(c2ccccc2)c2ccc(F)cc2)CC1

SMILES: Cn1nnc2c(C(N)=O)ncn2c1=O
Activity (VMM39 [2]): inactive
Activity (U-251 [3]): inactive

inhibition [5]: Active
inhibition [7]: Active
inhibition [12]: Active
inhibition [13]: Active
inhibition [20]: Active
inhibition [21]: Active
inhibition [22]: Active
inhibition [25]: Active
inhibition [34]: Active
inhibition [40]: Active
Activity [45]: 10%
inhibition [46]: Active
inhibition [47]: Active
inhibition [49]: Active
inhibition [1]: Dose-dependent effect
SMILES: Cc1nc2sccn2c(=O)c1CCN1CCC(=C(c2ccc(F)cc2)c2ccc(F)cc2)CC1 [RITANSERIN]
Activity (VMM39 [4]): inactive
Activity (Astrocyte [6]): Non-Toxic
Activity (A-375 [8]): Active
Activity (U-251 [9]): <=90%
Activity (Homo sapiens [10]): Active
IC50 [11]: 5 to 10 µM
Activity (B16): Active
Activity (Homo sapiens [14]): Active
Activity (U-251 [15]): Active
Activity (Homo sapiens [16]): Active
CI [17]: 0.24
Activity (Homo sapiens [18]): Active
Activity (U-251 [19]): Active
Activity (Homo sapiens [23]): inactive
Activity (U-251 [24]): Active
Activity (U-251 [26]): Active
CI [27]: 0.25
Activity (U-251 [28]): Active
Activity (Homo sapiens [29]): Active
Activity (U-251 [30]): inactive
Activity (GL261 [31]): Active
Activity (VMM39 [32]): inactive
Activity (VMM39 [33]): Active
Activity (GL261 [35]): Active
Activity (A-375 [36]): Active
Activity (U-251 [37]): Active
Activity (Homo sapiens [38]): Active
Activity (Homo sapiens [39]): Active
Activity (VMM39 [41]): Active
Activity (Astrocyte [42]): Non-Toxic
Activity (VMM39 [43]): <=90%
Ratio [44]: 3 - 4
Activity (A549): Active
Activity (U-251 [48]): inactive
Activity (GL261 [50]): Active
Activity (VMM39 [51]): Active
Activity (Homo sapiens [52]): Active
Activity (VMM39 [53]): Active
